Measurements taken from the NIST ThermoML archive (doi:10.1021/je5007696).
± gives the expanded uncertainty stated by the source.

Assay: xn = mol fraction of the nth substance listed
Settings: 100 kPa, Liquid, Concentric cylinders viscometry

COC(=O)CCCCC(=O)OC [dimethyl 1,6-hexanedioate] + CCC(C)=O
viscosity [mPa·s]
Settings | x1 = 0.1002 | x1 = 0.2002 | x1 = 0.3002 | x1 = 0.4004 | x1 = 0.5001 | x1 = 0.5999 | x1 = 0.6998 | x1 = 0.7994 | x1 = 0.8997 | x1 = 1
288.15 K | 0.5707 ± 0.0081 | 0.7368 ± 0.0085 | 0.9419 ± 0.0092 | 1.183 ± 0.01 | 1.467 ± 0.011 | 1.802 ± 0.013 | 2.191 ± 0.015 | 2.636 ± 0.017 | 3.16 ± 0.021 | 3.751 ± 0.024
293.15 K | 0.5434 ± 0.008 | 0.6952 ± 0.0084 | 0.8803 ± 0.009 | 1.096 ± 0.0097 | 1.347 ± 0.011 | 1.64 ± 0.012 | 1.974 ± 0.014 | 2.353 ± 0.016 | 2.794 ± 0.019 | 3.289 ± 0.022
298.15 K | 0.5166 ± 0.0079 | 0.6563 ± 0.0083 | 0.824 ± 0.0088 | 1.019 ± 0.0095 | 1.242 ± 0.01 | 1.498 ± 0.012 | 1.79 ± 0.013 | 2.12 ± 0.015 | 2.491 ± 0.017 | 2.91 ± 0.02
303.15 K | 0.4912 ± 0.0079 | 0.6199 ± 0.0082 | 0.7742 ± 0.0087 | 0.9509 ± 0.0093 | 1.15 ± 0.01 | 1.38 ± 0.011 | 1.635 ± 0.012 | 1.921 ± 0.014 | 2.241 ± 0.016 | 2.604 ± 0.018
308.15 K | 0.4667 ± 0.0078 | 0.5865 ± 0.0081 | 0.7277 ± 0.0085 | 0.8892 ± 0.0091 | 1.069 ± 0.0098 | 1.274 ± 0.011 | 1.5 ± 0.012 | 1.75 ± 0.013 | 2.033 ± 0.015 | 2.342 ± 0.017
313.15 K | 0.4425 ± 0.0078 | 0.555 ± 0.0081 | 0.6853 ± 0.0084 | 0.8331 ± 0.0089 | 0.9961 ± 0.0095 | 1.181 ± 0.01 | 1.382 ± 0.011 | 1.604 ± 0.012 | 1.851 ± 0.014 | 2.121 ± 0.015
318.15 K | 0.4199 ± 0.0077 | 0.525 ± 0.008 | 0.6465 ± 0.0083 | 0.7827 ± 0.0088 | 0.9324 ± 0.0093 | 1.098 ± 0.01 | 1.279 ± 0.011 | 1.476 ± 0.012 | 1.695 ± 0.013 | 1.933 ± 0.015
323.15 K | 0.4037 ± 0.0077 | 0.502 ± 0.0079 | 0.6165 ± 0.0082 | 0.7425 ± 0.0086 | 0.883 ± 0.0091 | 1.036 ± 0.0097 | 1.202 ± 0.011 | 1.381 ± 0.011 | 1.577 ± 0.013 | 1.79 ± 0.014
